Laboratory results: patent publication US10781183B2, “Small molecule inducers of reactive oxygen species and inhibitors of mitochondrial activity” (The Regents of the University of Michigan, priority 2016, dated 2020)
Where two headings read alike, the source gives them in different places.

Tests used:
MiaPaCa-2 cells = assay: MTT cytotoxicity assay, MiaPaCa-2; format: cell-based; conditions: Homo sapiens, MTT assay, Mean ± SD, three independent experiments
Experimental: (§1) MiaPaCa-2, Panc-1 and BxPC-3 pancreatic cancer cell lines were obtained from the ATCC. Normal pancreatic cells HPDE and HPNE were kindly provided (Translational Oncology Program, University of […], Ann Arbor, Mich.). Gemcitabine resistant cell line MiaPaCa-2-GR (gemcitabine resistant) was kindly provided (Department of Pathology, Wayne State University, Detroit, Mich.). All cell lines were cultured as monolayer and maintained in RPMI1640 supplemented with 10% fetal bovine serum (FBS) in a humidified atmosphere with 5% CO2 at 37° C. MiaPaCa-2-GR culture was supplemented with 200 nM gemcitabine.
(§2) Cytotoxicity of compounds was evaluated with 3-(4,5-dimethylthiazol-2-yl)-2,5-diphenyltetrazolium bromide (MTT) assay. Cells were placed in 96-well plate at 3000-8000 cells/well. After overnight attachment, compounds were added to the wells at sequential dilutions (30 nM-10 μM for most cell lines). After 72 h treatment, MTT was added into the media to a final concentration of 300 μg/mL. Cells were incubated for 3 h at 37° C., and the insoluble formazan converted by viable cells were dissolved in 150 μL of DMSO. Absorbance at 570 nm was read by microplate reader (Molecular devices, Sunnyvale, Calif.), and inhibition of cell proliferation was calculated using the following formula: Inhibition of cell proliferation (%)=(1−ODtreatment/ODcontrol)×100%

Panc-1 cells = assay: MTT cytotoxicity assay, Panc-1; format: cell-based; conditions: Homo sapiens, three independent experiments
Experimental: as §1, §2

BxPC-3 cells = assay: MTT cytotoxicity assay, BxPC-3; format: cell-based; conditions: Homo sapiens, three independent experiments
Experimental: as §1, §2

[1] = MIA PaCa-2, 72 h, Table 1, 72 h
[2] = MIA PaCa-2, Table 2, read-out: IC 50 MiaPaCa-2
[3] = PANC-1, 72 h, Table 1, 72 h, Mean ± SD
[4] = PANC-1, Table 2, Mean ± SD, read-out: IC 50 Panc-1
[5] = BXPC-3, 72 h, Table 1, 72 h, Mean ± SD
[6] = BXPC-3, Table 2, Mean ± SD, read-out: IC 50 BxPC-3

Compound: O=C1C(Nc2ccc(-c3ccccn3)cc2)=CC(=O)c2ncncc21 [QD395, 6-(4-(Pyridin-2-yl)phenylamino)quinazoline-5,8-dione]
- melting point: 239 °C

Compound: COC(=O)c1ccc(NC2=CC(=O)c3ncncc3C2=O)cc1 [QD331, Methyl 4-((5,8-dioxo-5,8-dihydroquinazolin-6-yl)amino)benzoate]
- IC50 (MiaPaCa-2 cells; [1]): 2.2 ± 0.4 µM
- IC50 (MiaPaCa-2 cells; [2]): 2.2 ± 0.4 µM
- IC50 (Panc-1 cells; [3]): 1.1 ± 0.4 µM
- IC50 (Panc-1 cells; [4]): 1.1 ± 0.4 µM
- IC50 (BxPC-3 cells; [5]): 5.8 ± 0.3 µM
- IC50 (BxPC-3 cells; [6]): 5.8 ± 0.3 µM
- melting point: 226 to 230 °C

Compound: O=C(NCCC[P+](c1ccccc1)(c1ccccc1)c1ccccc1)c1ccc(NC2=CC(=O)c3ncncc3C2=O)cc1 [QD340, (3-(4-((5,8-dioxo-5,8-dihydroquinazolin-6-yl)amino)benzamido)propyl) triphenylphosphonium bromide]
- IC50 (MiaPaCa-2 cells; [1]): 15.3 ± 2.5 µM
- IC50 (MiaPaCa-2 cells; [2]): 15.3 ± 2.5 µM
- IC50 (Panc-1 cells; [3]): 11.7 ± 1.5 µM
- IC50 (Panc-1 cells; [4]): 11.7 ± 1.5 µM
- IC50 (BxPC-3 cells; [5]): 21.5 ± 2.3 µM
- IC50 (BxPC-3 cells; [6]): 21.5 ± 2.3 µM

Compound: O=C(NCCC[P+](c1ccccc1)(c1ccccc1)c1ccccc1)c1cccc(NC2=CC(=O)c3ncncc3C2=O)c1 [QD359, (3-(3-((5,8-dioxo-5,8-dihydroquinazolin-6-yl)amino)benzamido)propyl) triphenylphosphonium bromide]
- IC50 (MiaPaCa-2 cells; [1]): 16.3 ± 3.6 µM
- IC50 (MiaPaCa-2 cells; [2]): 16.3 ± 3.5 µM
- IC50 (Panc-1 cells; [3]): 14.3 ± 1.5 µM
- IC50 (Panc-1 cells; [4]): 14.3 ± 1.5 µM
- IC50 (BxPC-3 cells; [5]): 21.3 ± 2.5 µM
- IC50 (BxPC-3 cells; [6]): 21.3 ± 2.5 µM

Compound: CCc1ccc(-c2ccc(NC3=CC(=O)c4ncncc4C3=O)cc2)cc1 [QD392, 6-(4′-Ethylbiphenyl-4-ylamino)quinazoline-5,8-dione]
- melting point: 247 °C

Compound: CCOC(=O)c1ccc(NC2=CC(=O)c3ncncc3C2=O)cc1 [QD332, Ethyl 4-((5,8-dioxo-5,8-dihydroquinazolin-6-yl)amino)benzoate]
- IC50 (MiaPaCa-2 cells; [1]): 5.5 ± 1.5 µM
- IC50 (MiaPaCa-2 cells; [2]): 5.5 ± 1.5 µM
- IC50 (Panc-1 cells; [3]): 1.6 ± 0.3 µM
- IC50 (Panc-1 cells; [4]): 1.6 ± 0.3 µM
- IC50 (BxPC-3 cells; [5]): 5.9 ± 0.1 µM
- IC50 (BxPC-3 cells; [6]): 5.9 ± 0.1 µM
- melting point: 206 to 207 °C

Compound: O=C1C(Nc2ccc(-c3cc(Cl)cc(Cl)c3)cc2)=CC(=O)c2ncncc21 [QD387, 6-(3′,5′-Dichlorobiphenyl-4-ylamino)quinazoline-5,8-dione]
- melting point: 260 to 261 °C

Compound: Cc1ccc(-c2ccc(NC3=CC(=O)c4ncncc4C3=O)cc2F)cc1 [QD338, 6-((2-fluoro-4′-methyl-[1,1′-biphenyl]-4-yl)amino)quinazoline-5,8-dione]
- IC50 (MiaPaCa-2 cells; [1]): 4.6 ± 1.1 µM
- IC50 (MiaPaCa-2 cells; [2]): 4.6 ± 1.1 µM
- IC50 (Panc-1 cells; [3]): 4.8 ± 0.1 µM
- IC50 (Panc-1 cells; [4]): 4.8 ± 0.1 µM
- IC50 (BxPC-3 cells; [5]): 5 ± 0.7 µM
- IC50 (BxPC-3 cells; [6]): 5 ± 0.7 µM
- melting point: 282 to 283 °C

Compound: O=C1C(Nc2ccc3c(c2)Cc2ccccc2-3)=CC(=O)c2ncncc21 [QD391, 6-(9H-Fluoren-2-ylamino)quinazoline-5,8-dione]
- melting point: 236 to 237 °C

Compound: O=C1C(Nc2ccc(-c3ccc(Cl)cc3)cc2)=CC(=O)c2ncncc21 [QD386, 6-(4′-Chlorobiphenyl-4-ylamino)quinazoline-5,8-dione]
- melting point: 292 to 293 °C

Compound: Nc1ccc(C(=O)NCCC[P+](c2ccccc2)(c2ccccc2)c2ccccc2)cc1.[Br-] [QD339, (3-(4-aminobenzamido)propyl) triphenylphosphonium bromide]
- IC50 (MiaPaCa-2 cells; [2]): > 30 µM
- IC50 (Panc-1 cells; [3]): > 30 µM
- IC50 (Panc-1 cells; [4]): > 30 µM
- IC50 (BxPC-3 cells; [6]): > 30 µM
- melting point: 203 to 205 °C

Compound: NC(=O)c1ccc(NC2=CC(=O)c3ncncc3C2=O)cc1 [QD330, 4-((5,8-dioxo-5,8-dihydroquinazolin-6-yl)amino)benzamide]
- IC50 (MiaPaCa-2 cells; [1]): 8 ± 0.9 µM
- IC50 (MiaPaCa-2 cells; [2]): 8 ± 0.9 µM
- IC50 (Panc-1 cells; [3]): 6.3 ± 0.3 µM
- IC50 (Panc-1 cells; [4]): 6.3 ± 0.3 µM
- IC50 (BxPC-3 cells; [5]): > 10 µM
- IC50 (BxPC-3 cells; [6]): > 10 µM
- melting point: > 320 °C

Compound: O=C1C(Nc2cccc(-c3ccccc3)c2)=CC(=O)c2ncncc21 [QD385, 6-(Biphenyl-3-ylamino)quinazoline-5,8-dione]
- melting point: 199 to 200 °C

Compound: NS(=O)(=O)c1ccc(NC2=CC(=O)c3ncncc3C2=O)cc1 [QD328, 4-((5,8-dioxo-5,8-dihydroquinazolin-6-yl)amino)benzenesulfonamide]
- IC50 (MiaPaCa-2 cells; [1]): > 10 µM
- IC50 (MiaPaCa-2 cells; [2]): > 10 µM
- IC50 (Panc-1 cells; [3]): > 10 µM
- IC50 (Panc-1 cells; [4]): > 10 µM
- IC50 (BxPC-3 cells; [5]): > 10 µM
- IC50 (BxPC-3 cells; [6]): > 10 µM
- melting point: > 320 °C

Compound: O=C1C(Nc2ccc(-c3ccc(F)cc3)cc2)=CC(=O)c2ncncc21 [QD334, 6-((4′-fluoro-[1,1′-biphenyl]-4-yl)amino)quinazoline-5,8-dione]
- IC50 (MiaPaCa-2 cells; [1]): 3.5 ± 1 µM
- IC50 (MiaPaCa-2 cells; [2]): 3.5 ± 1 µM
- IC50 (Panc-1 cells; [3]): 3.2 ± 0.8 µM
- IC50 (Panc-1 cells; [4]): 3.2 ± 0.8 µM
- IC50 (BxPC-3 cells; [5]): 4.4 ± 0.9 µM
- IC50 (BxPC-3 cells; [6]): 4.4 ± 0.9 µM
- melting point: 285 to 289 °C

Compound: O=C1C(Nc2ccc(N3CCCCC3)cc2)=CC(=O)c2ncncc21 [QD388, 6-(4-(Piperidin-1-yl)phenylamino)quinazoline-5,8-dione]
- melting point: 209 °C

Compound: O=C1C(Nc2cccc(B(O)O)c2)=CC(=O)c2ncncc21 [QD333, (3-((5,8-dioxo-5,8-dihydroquinazolin-6-yl)amino)phenyl)boronic acid]
- IC50 (MiaPaCa-2 cells; [1]): > 10 µM
- IC50 (MiaPaCa-2 cells; [2]): > 10 µM
- IC50 (Panc-1 cells; [3]): 9 ± 1 µM
- IC50 (Panc-1 cells; [4]): 9 ± 1 µM
- IC50 (BxPC-3 cells; [5]): > 10 µM
- IC50 (BxPC-3 cells; [6]): > 10 µM
- melting point: 208 to 210 °C

Compound: COc1cc(NC2=CC(=O)c3ncncc3C2=O)cc(OC)c1 [QD357, 6-((3,5-dimethoxyphenyl)amino)quinazoline-5,8-dione]
- IC50 (MiaPaCa-2 cells; [1]): 7.7 ± 2 µM
- IC50 (MiaPaCa-2 cells; [2]): 7.7 ± 2 µM
- IC50 (Panc-1 cells; [3]): 7.2 ± 0.8 µM
- IC50 (Panc-1 cells; [4]): 7.2 ± 0.8 µM
- IC50 (BxPC-3 cells; [5]): 16.3 ± 1.5 µM
- IC50 (BxPC-3 cells; [6]): 16.3 ± 1.5 µM

Compound: O=C1C(Nc2ccc(OC(F)(F)F)cc2)=CC(=O)c2ncncc21 [QD327, 6-((4-(trifluoromethoxy)phenyl)amino)quinazoline-5,8-dione]
- IC50 (MiaPaCa-2 cells; [1]): 1.4 ± 0.2 µM
- IC50 (MiaPaCa-2 cells; [2]): 1.4 ± 0.2 µM
- IC50 (Panc-1 cells; [3]): 0.9 ± 0.1 µM
- IC50 (Panc-1 cells; [4]): 0.9 ± 0.1 µM
- IC50 (BxPC-3 cells; [5]): 0.9 ± 0.1 µM
- IC50 (BxPC-3 cells; [6]): 0.9 ± 0.1 µM
- melting point: 114 °C

Compound: Nc1cccc(C(=O)NCCC[P+](c2ccccc2)(c2ccccc2)c2ccccc2)c1.[Br-] [QD358, (3-(3-aminobenzamido)propyl)triphenylphosphonium bromide]
- IC50 (MiaPaCa-2 cells; [2]): > 30 µM
- IC50 (Panc-1 cells; [3]): > 30 µM
- IC50 (Panc-1 cells; [4]): > 30 µM
- IC50 (BxPC-3 cells; [6]): > 30 µM
- melting point: 223 °C

Compound: O=C1C(Nc2cccc3c2-c2ccccc2C3)=CC(=O)c2ncncc21 [QD390, 6-(9H-Fluoren-4-ylamino)quinazoline-5,8-dione]
- melting point: 217 °C

Compound: O=C1C(Nc2ccc(C3CCCCC3)cc2)=CC(=O)c2ncncc21 [QD393, 6-(4-Cyclohexylphenylamino)quinazoline-5,8-dione]
- melting point: 234 °C

Compound: O=C1C=CC(=O)c2ncncc21 [QD323, quinazoline-5,8-dione]
- melting point: > 320 °C

Compound: COc1ccc(NC2=CC(=O)c3ncncc3C2=O)cc1OC [QD355, 6-((3,4-dimethoxyphenyl)amino)quinazoline-5,8-dione]
- IC50 (MiaPaCa-2 cells; [1]): 1.8 ± 0.1 µM
- IC50 (MiaPaCa-2 cells; [2]): 1.8 ± 0.1 µM
- IC50 (Panc-1 cells; [3]): 0.9 ± 0.3 µM
- IC50 (Panc-1 cells; [4]): 0.9 ± 0.3 µM
- IC50 (BxPC-3 cells; [5]): 1.5 ± 0.2 µM
- IC50 (BxPC-3 cells; [6]): 1.5 ± 0.2 µM

Compound: O=C1C(Nc2ccc(N3CCOCC3)cc2)=CC(=O)c2ncncc21 [QD389, 6-(4-Morpholinophenylamino)quinazoline-5,8-dione]
- melting point: 226 to 227 °C

Compound: O=C1C(Nc2ccc(CO)cc2)=CC(=O)c2ncncc21 [QD329, 6-((4-(hydroxymethyl)phenyl)amino)quinazoline-5,8-dione]
- IC50 (MiaPaCa-2 cells; [1]): 3.5 ± 1.3 µM
- IC50 (MiaPaCa-2 cells; [2]): 3.5 ± 1.3 µM
- IC50 (Panc-1 cells; [3]): 1 ± 0.2 µM
- IC50 (Panc-1 cells; [4]): 1 ± 0.2 µM
- IC50 (BxPC-3 cells; [5]): 2.7 ± 0.3 µM
- IC50 (BxPC-3 cells; [6]): 5.7 ± 0.3 µM
